Assays:
Experiment in all cases: relative viability (nuclei count vs DMSO), 5 days (fraction); higher = more cells survive
[1] = compound: O=C(C[C@H]1NCCC[C@@H]1O)Cn1cnc2cc(Br)c(Cl)cc2c1=O (racemic) [Halofuginone] + C[C@@H](Oc1cc(-c2cnn(C3CCNCC3)c2)cnc1N)c1c(Cl)ccc(F)c1Cl [Crizotinib] (partner 1 µM)
Outline: (§1)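 Dosing by pin tool came one day after lung cancer cell lines were seeded in 1536-well plates, using either one drug or a fixed anchor-drug dose plus five library-drug doses (not always all listed) in √10 steps. After 5 days, nuclei were counted on 4× images. Relative viability is treated-well nuclei count divided by vehicle-well nuclei count, and values are medians of duplicate plates.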

[2] = compound: O=C(C[C@H]1NCCC[C@@H]1O)Cn1cnc2cc(Br)c(Cl)cc2c1=O (racemic) [Halofuginone] + Cc1cc(Nc2cc(N3CCN(C)CC3)nc(Sc3ccc(NC(=O)C4CC4)cc3)n2)n[nH]1 [Tozasertib] (partner 0.1 µM)
Outline: as §1

Cediranib + Lapatinib = compound: COc1cc2c(Oc3ccc4[nH]c(C)cc4c3F)ncnc2cc1OCCCN1CCCC1 [Cediranib] + CS(=O)(=O)CCNCc1ccc(-c2ccc3ncnc(Nc4ccc(OCc5cccc(F)c5)c(Cl)c4)c3c2)o1 [Lapatinib] (partner 2 µM)
Outline: as §1

Decitabine + Alpelisib = compound: Nc1ncn([C@H]2C[C@H](O)[C@@H](CO)O2)c(=O)n1 [Decitabine] + Cc1nc(NC(=O)N2CCC[C@H]2C(N)=O)sc1-c1ccnc(C(C)(C)C(F)(F)F)c1 [Alpelisib] (partner 2 µM)
Outline: as §1

NCI-H2405 showed a relative viability ([1]; first compound 0.001 µM) of 0.907, a relative viability ([1]; first compound 0.003162 µM) of 0.935 and a relative viability ([1]; first compound 0.01 µM) of 0.822. For the same cell line, the relative viability ([1]; first compound 0.03162 µM) was 0.831, the relative viability ([1]; first compound 0.1 µM) was 0.74 and the relative viability ([2]; first compound 0.001 µM) was 0.906. It also gave a relative viability ([2]; first compound 0.003162 µM) of 0.776, a relative viability ([2]; first compound 0.01 µM) of 0.682 and a relative viability ([2]; first compound 0.03162 µM) of 0.775. For the same cell line, the relative viability ([2]; first compound 0.1 µM) was 0.64, the relative viability (Cediranib + Lapatinib; first compound 0.04 µM) was 1.02 and the relative viability (Cediranib + Lapatinib; first compound 0.1265 µM) was 1.13. The relative viability (Cediranib + Lapatinib; first compound 0.4 µM) was 1.11, the relative viability (Cediranib + Lapatinib; first compound 1.265 µM) was 1.13 and the relative viability (Cediranib + Lapatinib; first compound 4 µM) was 1.09. For the same cell line, the relative viability (Decitabine + Alpelisib; first compound 0.04 µM) was 0.737, the relative viability (Decitabine + Alpelisib; first compound 0.1265 µM) was 0.753 and the relative viability (Decitabine + Alpelisib; first compound 0.4 µM) was 0.698. The relative viability (Decitabine + Alpelisib; first compound 1.265 µM) was 0.494 and the relative viability (Decitabine + Alpelisib; first compound 4 µM) was 0.373.
NCI-H3122 gave a relative viability ([1]; first compound 0.001 µM) of 0.253, a relative viability ([1]; first compound 0.003162 µM) of 0.251 and a relative viability ([1]; first compound 0.01 µM) of 0.232. It also gave a relative viability ([1]; first compound 0.03162 µM) of 0.281, a relative viability ([1]; first compound 0.1 µM) of 0.264 and a relative viability ([2]; first compound 0.001 µM) of 0.38. It also gave a relative viability ([2]; first compound 0.003162 µM) of 0.381, a relative viability ([2]; first compound 0.01 µM) of 0.356 and a relative viability ([2]; first compound 0.03162 µM) of 0.414. The relative viability ([2]; first compound 0.1 µM) was 0.166, the relative viability (Cediranib + Lapatinib; first compound 0.04 µM) was 1.05 and the relative viability (Cediranib + Lapatinib; first compound 0.1265 µM) was 0.985. It also gave a relative viability (Cediranib + Lapatinib; first compound 0.4 µM) of 1.01, a relative viability (Cediranib + Lapatinib; first compound 1.265 µM) of 0.98 and a relative viability (Cediranib + Lapatinib; first compound 4 µM) of 1.05. It also gave a relative viability (Decitabine + Alpelisib; first compound 0.04 µM) of 0.666, a relative viability (Decitabine + Alpelisib; first compound 0.1265 µM) of 0.774 and a relative viability (Decitabine + Alpelisib; first compound 0.4 µM) of 0.732. For the same cell line, the relative viability (Decitabine + Alpelisib; first compound 1.265 µM) was 0.709 and the relative viability (Decitabine + Alpelisib; first compound 4 µM) was 0.528.
For PC-3 [JPC-3], the relative viability ([1]; first compound 0.001 µM) was 1.03, the relative viability ([1]; first compound 0.003162 µM) was 0.969 and the relative viability ([1]; first compound 0.01 µM) was 0.975. It also gave a relative viability ([1]; first compound 0.03162 µM) of 0.943, a relative viability ([1]; first compound 0.1 µM) of 0.988 and a relative viability ([2]; first compound 0.001 µM) of 0.863. The relative viability ([2]; first compound 0.003162 µM) was 0.872, the relative viability ([2]; first compound 0.01 µM) was 0.863 and the relative viability ([2]; first compound 0.03162 µM) was 0.874. For the same cell line, the relative viability ([2]; first compound 0.1 µM) was 0.856, the relative viability (Cediranib + Lapatinib; first compound 0.04 µM) was 0.479 and the relative viability (Cediranib + Lapatinib; first compound 0.1265 µM) was 0.554. The relative viability (Cediranib + Lapatinib; first compound 0.4 µM) was 0.472, the relative viability (Cediranib + Lapatinib; first compound 1.265 µM) was 0.391 and the relative viability (Cediranib + Lapatinib; first compound 4 µM) was 0.45. The relative viability (Decitabine + Alpelisib; first compound 0.1265 µM) was 0.773, the relative viability (Decitabine + Alpelisib; first compound 0.4 µM) was 0.581 and the relative viability (Decitabine + Alpelisib; first compound 1.265 µM) was 0.493. The relative viability (Decitabine + Alpelisib; first compound 4 µM) was 0.479.
PC-14 gave a relative viability ([1]; first compound 0.001 µM) of 1, a relative viability ([1]; first compound 0.003162 µM) of 0.826 and a relative viability ([1]; first compound 0.01 µM) of 0.727. It also gave a relative viability ([1]; first compound 0.03162 µM) of 0.722, a relative viability ([1]; first compound 0.1 µM) of 0.183 and a relative viability ([2]; first compound 0.001 µM) of 0.701. For the same cell line, the relative viability ([2]; first compound 0.003162 µM) was 0.626, the relative viability ([2]; first compound 0.01 µM) was 0.495 and the relative viability ([2]; first compound 0.03162 µM) was 0.529. For the same cell line, the relative viability ([2]; first compound 0.1 µM) was 0.208, the relative viability (Cediranib + Lapatinib; first compound 0.04 µM) was 0.308 and the relative viability (Cediranib + Lapatinib; first compound 0.1265 µM) was 0.461. For the same cell line, the relative viability (Cediranib + Lapatinib; first compound 0.4 µM) was 0.297, the relative viability (Cediranib + Lapatinib; first compound 1.265 µM) was 0.301 and the relative viability (Cediranib + Lapatinib; first compound 4 µM) was 0.404. It also gave a relative viability (Decitabine + Alpelisib; first compound 0.04 µM) of 0.623, a relative viability (Decitabine + Alpelisib; first compound 0.1265 µM) of 0.723 and a relative viability (Decitabine + Alpelisib; first compound 0.4 µM) of 0.411. For the same cell line, the relative viability (Decitabine + Alpelisib; first compound 1.265 µM) was 0.196 and the relative viability (Decitabine + Alpelisib; first compound 4 µM) was 0.18.
For RERF-LC-KJ, the relative viability ([1]; first compound 0.001 µM) was 0.888, the relative viability ([1]; first compound 0.003162 µM) was 0.791 and the relative viability ([1]; first compound 0.01 µM) was 0.807. It also gave a relative viability ([1]; first compound 0.03162 µM) of 0.818, a relative viability ([1]; first compound 0.1 µM) of 0.823 and a relative viability ([2]; first compound 0.001 µM) of 0.549. It also gave a relative viability ([2]; first compound 0.003162 µM) of 0.484, a relative viability ([2]; first compound 0.01 µM) of 0.468 and a relative viability ([2]; first compound 0.03162 µM) of 0.456. It also gave a relative viability ([2]; first compound 0.1 µM) of 0.346, a relative viability (Cediranib + Lapatinib; first compound 0.04 µM) of 0.94 and a relative viability (Cediranib + Lapatinib; first compound 0.1265 µM) of 0.751. It also gave a relative viability (Cediranib + Lapatinib; first compound 0.4 µM) of 0.783, a relative viability (Cediranib + Lapatinib; first compound 1.265 µM) of 0.836 and a relative viability (Cediranib + Lapatinib; first compound 4 µM) of 0.954. The relative viability (Decitabine + Alpelisib; first compound 0.04 µM) was 0.87, the relative viability (Decitabine + Alpelisib; first compound 0.1265 µM) was 0.914 and the relative viability (Decitabine + Alpelisib; first compound 0.4 µM) was 0.702. The relative viability (Decitabine + Alpelisib; first compound 1.265 µM) was 0.643 and the relative viability (Decitabine + Alpelisib; first compound 4 µM) was 0.569.
SK-LU-1 showed a relative viability ([1]; first compound 0.001 µM) of 1.25, a relative viability ([1]; first compound 0.003162 µM) of 0.978 and a relative viability ([1]; first compound 0.01 µM) of 0.836. The relative viability ([1]; first compound 0.03162 µM) was 0.927, the relative viability ([1]; first compound 0.1 µM) was 0.325 and the relative viability ([2]; first compound 0.001 µM) was 0.367. The relative viability ([2]; first compound 0.003162 µM) was 0.381, the relative viability ([2]; first compound 0.01 µM) was 0.34 and the relative viability ([2]; first compound 0.03162 µM) was 0.313. It also gave a relative viability ([2]; first compound 0.1 µM) of 0.171, a relative viability (Cediranib + Lapatinib; first compound 0.04 µM) of 1 and a relative viability (Cediranib + Lapatinib; first compound 0.1265 µM) of 0.743. The relative viability (Cediranib + Lapatinib; first compound 0.4 µM) was 0.851, the relative viability (Cediranib + Lapatinib; first compound 1.265 µM) was 0.836 and the relative viability (Cediranib + Lapatinib; first compound 4 µM) was 1.07. For the same cell line, the relative viability (Decitabine + Alpelisib; first compound 0.04 µM) was 0.62, the relative viability (Decitabine + Alpelisib; first compound 0.1265 µM) was 0.637 and the relative viability (Decitabine + Alpelisib; first compound 0.4 µM) was 0.485. It also gave a relative viability (Decitabine + Alpelisib; first compound 1.265 µM) of 0.5 and a relative viability (Decitabine + Alpelisib; first compound 4 µM) of 0.284.
SK-MES-1 showed a relative viability ([1]; first compound 0.001 µM) of 1.02, a relative viability ([1]; first compound 0.003162 µM) of 1.01 and a relative viability ([1]; first compound 0.01 µM) of 0.863. It also gave a relative viability ([1]; first compound 0.03162 µM) of 0.778, a relative viability ([1]; first compound 0.1 µM) of 0.302 and a relative viability ([2]; first compound 0.001 µM) of 1.03. For the same cell line, the relative viability ([2]; first compound 0.003162 µM) was 0.926, the relative viability ([2]; first compound 0.01 µM) was 0.754 and the relative viability ([2]; first compound 0.03162 µM) was 0.647. The relative viability ([2]; first compound 0.1 µM) was 0.168, the relative viability (Cediranib + Lapatinib; first compound 0.04 µM) was 0.471 and the relative viability (Cediranib + Lapatinib; first compound 0.1265 µM) was 0.502. The relative viability (Cediranib + Lapatinib; first compound 0.4 µM) was 0.441, the relative viability (Cediranib + Lapatinib; first compound 1.265 µM) was 0.514 and the relative viability (Cediranib + Lapatinib; first compound 4 µM) was 0.473. For the same cell line, the relative viability (Decitabine + Alpelisib; first compound 0.04 µM) was 0.733, the relative viability (Decitabine + Alpelisib; first compound 0.1265 µM) was 0.738 and the relative viability (Decitabine + Alpelisib; first compound 0.4 µM) was 0.482. The relative viability (Decitabine + Alpelisib; first compound 1.265 µM) was 0.32 and the relative viability (Decitabine + Alpelisib; first compound 4 µM) was 0.261.
SW 1573 showed a relative viability ([1]; first compound 0.001 µM) of 1.03, a relative viability ([1]; first compound 0.003162 µM) of 0.915 and a relative viability ([1]; first compound 0.01 µM) of 0.803. The relative viability ([1]; first compound 0.03162 µM) was 0.574, the relative viability ([1]; first compound 0.1 µM) was 0.195 and the relative viability ([2]; first compound 0.001 µM) was 0.242. The relative viability ([2]; first compound 0.003162 µM) was 0.192, the relative viability ([2]; first compound 0.01 µM) was 0.111 and the relative viability ([2]; first compound 0.03162 µM) was 0.129. For the same cell line, the relative viability ([2]; first compound 0.1 µM) was 0.121, the relative viability (Cediranib + Lapatinib; first compound 0.04 µM) was 1.17 and the relative viability (Cediranib + Lapatinib; first compound 0.1265 µM) was 1.11. For the same cell line, the relative viability (Cediranib + Lapatinib; first compound 0.4 µM) was 0.959, the relative viability (Cediranib + Lapatinib; first compound 1.265 µM) was 1.07 and the relative viability (Cediranib + Lapatinib; first compound 4 µM) was 1.3. It also gave a relative viability (Decitabine + Alpelisib; first compound 0.04 µM) of 0.7, a relative viability (Decitabine + Alpelisib; first compound 0.1265 µM) of 0.912 and a relative viability (Decitabine + Alpelisib; first compound 0.4 µM) of 0.61. It also gave a relative viability (Decitabine + Alpelisib; first compound 1.265 µM) of 0.274 and a relative viability (Decitabine + Alpelisib; first compound 4 µM) of 0.298.

From the supplement of paper PMC10307832
